According to publication PMC10049495, “Antitumor Activity of PEGylated and TEGylated Phenothiazine Derivatives: Structure–Activity Relationship” (International Journal of Molecular Sciences, 2023):
“And” between values parts separate entries of the source, which are not always exact repeats. Equal entries are not always repeated. Where two headings read alike, the source gives them in different places.

Tests used:
[1] = test system: malignant melanoma (MeWo) cells; test: Cytotoxicity MTS assay on MeWo; format: cell-based, human; conditions: for Selectivity index (SI): IC50 NHDF / IC50 MeWo; for IC50: MeWo, 48 h, MTS, tested 0.01-0.3 mM, read-out: Half maximal inhibition concentration (IC50)
Description: (§1) Cell culture: NHDF, HeLa, HOS, HepG2, MCF7, MeWo and CT-26 cells were cultivated in complete Eagle’s Minimal Essential Medium alpha (aMEM) containing a 1% Penicillin–Streptomycin–Amphotericin B mixture and a 10% fetal bovine serum under 5% CO2 humidified atmosphere at 37 °C. LN-229 cells were cultivated in DMEM with a 1% Penicillin–Streptomycin–Amphotericin B mixture and a 5% fetal bovine serum. U-118 cells were cultivated in DMEM with a 1% Penicillin–Streptomycin–Amphotericin B mixture and a 10% fetal bovine serum. StemPro™ Accutase™ Cell Dissociation Reagent was used for passaging MeWo and U-118 cells, and TrypLE Express was used for all other cell lines.
(§2) The working solutions were prepared by diluting the stock solutions with complete medium so that the final concentration of DMSO in the cell culture was 1%. The working solutions were used for incubation. Control cells were treated only with complete cell culture medium containing 1% DMSO.
(§3) Cytotoxicity MTS assay: In order to perform the MTS assay, cells were placed in culture-treated 96-well plates at densities of 5 × 10^3 cells/well (NHDF and CT-26), 7 × 10^3 cells/well (MCF7) and 10 × 10^3 cells/well (HOS, HeLa, HepG2, MeWo, LN-229, U-118) in 100 μL of a MEM medium/well and allowed to adhere for 24 h. After 24 h, the culture medium was replaced with the tested compound solutions at various concentrations, and the plates were incubated for another 48 h. Before the final reading, 20 μL CellTiter 96® Aqueous One Solution/well was added, and the plates were incubated for 1–4 h. Finally, the absorbance was recorded with a microplate reader at λ = 490 nm. The relative cell viability was expressed as a percentage of the viability of control, and the half maximal inhibitory concentration (IC50) was determined from the graphical representation of the cell viability vs. concentration. Graphical data were expressed as means ± standard error of the mean (S.E.M.). Statistical analysis was made with two-way ANOVA using Tukey’s multiple comparisons test. The difference was considered significant when p < 0.05. Data analysis was performed with GraphPad Prism software version 7.00 for Windows.

[2] = test system: cervical carcinoma (HeLa) cells; test: Cytotoxicity MTS assay on HeLa; format: cell-based, human; conditions: for IC50: HeLa, 48 h, MTS, tested 0.01-0.3 mM, read-out: Half maximal inhibition concentration (IC50); for Selectivity index (SI): IC50 NHDF / IC50 HeLa
Description: as §1, §2, §3

[3] = test system: normal human dermal fibroblasts (NHDF); test: Cytotoxicity MTS assay on normal fibroblasts; format: cell-based; conditions: 48 h, tested 0.01-0.3 mM, read-out: Half maximal inhibition concentration (IC50)
Description: as §1, §2, §3

osteosarcoma (HOS) cells = test: Cytotoxicity MTS assay on HOS; format: cell-based, human; conditions: 48 h, tested 0.01-0.3 mM, read-out: Half maximal inhibition concentration (IC50)
Description: as §1, §2, §3

[4] = test system: breast cancer (MCF7) cells; test: Cytotoxicity MTS assay on MCF-7; format: cell-based, human; conditions: for Selectivity index (SI): IC50 NHDF / IC50 MCF7; for IC50: MCF-7, 48 h, MTS, tested 0.01-0.3 mM, read-out: Half maximal inhibition concentration (IC50)
Description: as §1, §2, §3

[5] = DPPH radical scavenging activity; conditions: for DPPH radical inhibition: 1 mM compound, ethanol, 1 h in the dark
From the text: In this light, the antioxidant activity of the studied phenothiazine derivatives was investigated using DPPH assay, measuring the dependence of the free radical inhibition on the concentration as highlighted by a decreasing of the absorbance of DPPH when the concentration of the compound is increasing. The results, expressed in percentage of inhibition, are represented in Figure 4.
Ex Vivo Radical Scavenging Activity: In order to evaluate antioxidant activity of the studied compounds, a bleaching method of the 1,1-diphenyl-2-picryl hydrazyl (DPPH) radical was used. Briefly, a stock solution of 2 mM of each compound in ethanol was prepared and then diluted to obtain 10 different concentrations from 1 mM to 0.0019 mM using a 96-well plate. The diluted solutions with different concentrations were mixed with an equal volume of ethanolic DPPH solution (0.05 mg/mL), and the mixtures were incubated in the dark at room temperature […] for 1 h. After incubation, the absorbance was read at 517 nm. Inhibition percentage was calculated using Equation (2), where Ac is the absorbance of the control sample (DPPH) and As is the absorbance of the mixtures. All measurements were made in triplicate. I % = (Ac-As)/Ac × 100 (2)

[6] = test system: glioblastoma cell line (U-118); test: Cytotoxicity MTS assay on U-118; format: cell-based, human; conditions: for IC50: U-118, 48 h, MTS, tested 0.01-0.3 mM, read-out: Half maximal inhibition concentration (IC50)
Description: as §1, §2, §3

[7] = test system: liver cancer (HepG2) cells; test: Cytotoxicity MTS assay on HepG2; format: cell-based, human; conditions: for IC50: HepG2, 48 h, MTS, tested 0.01-0.3 mM, read-out: Half maximal inhibition concentration (IC50)
Description: as §1, §2, §3

[8] = test system: mouse colon carcinoma cell line (CT26); test: Cytotoxicity MTS assay on CT-26; format: cell-based; conditions: for IC50: CT-26, 48 h, MTS, tested 0.01-0.3 mM, read-out: Half maximal inhibition concentration (IC50); for Selectivity index (SI): IC50 NHDF / IC50 CT-26
Description: as §1, §2, §3

[9] = test system: glioblastoma (LN229) cells; test: Cytotoxicity MTS assay on LN229; format: cell-based, human; conditions: tested 0.01-0.3 mM, read-out: Half maximal inhibition concentration (IC50)
Description: as §1, §2, §3

HeLa = conditions: cited from earlier work
MCF-7 = conditions: cited from earlier work
HepG2 = conditions: cited from earlier work

4-((((10-(poly(ethylene glycol))-10H-phenothiazin-3-yl)methylene)amino)ethyl)benzenesulfonamide [PPEA]
Selectivity index (SI) [1]: 1.66
IC50 [1]: 68 µM
IC50 [2]: 86 µM
Selectivity index (SI) [2]: 1.25
IC50 [3]: 108 µM
IC50 (osteosarcoma (HOS) cells): > 300 µM
Selectivity index (SI) [4]: 1.11
IC50 [4]: 90 µM
DPPH radical inhibition [5]: 47%
IC50 [6]: 100 µM
IC50 [7]: 40 µM
Selectivity index (SI) ([7]; IC50 NHDF / IC50 HepG2): 2.5
IC50 [8]: 29 µM
Selectivity index (SI) [8]: 3.44
IC50 ([9]; LN229, 48 h): 109 µM

4-((((10-(poly(ethylene glycol))-10H-phenothiazin-3-yl)methylene)amino)methyl) benzenesulfonamide [PPMA]
Selectivity index (SI) [1]: 1.5
IC50 [1]: 104 µM
IC50 [2]: 116 µM
Selectivity index (SI) [2]: 1.36
IC50 [3]: 150 µM
IC50 (osteosarcoma (HOS) cells): > 300 µM
Selectivity index (SI) [4]: 1.66
IC50 [4]: 90 µM
DPPH radical inhibition [5]: 44%
Selectivity index (SI) ([6]; IC50 NHDF / IC50 U118MG): 1.66
IC50 [6]: 92 µM
IC50 [7]: 54 µM
Selectivity index (SI) ([7]; IC50 NHDF / IC50 HepG2): 3
IC50 [8]: 40 µM
Selectivity index (SI) [8]: 3.75
IC50 ([9]; LN229, 48 h): 239 µM

10-(poly(ethylene glycol))-10H-phenothiazine-3-carbaldehyde [PPF]
IC50 [1]: 235 µM
IC50 [2]: > 300 µM
IC50 [3]: > 300 µM
IC50 (osteosarcoma (HOS) cells): > 300 µM
IC50 [4]: 270 µM
radical scavenging capacity (in words) ([5]; DPPH, 0.0019-1 mM): very low radical scavenging capacity
IC50 [6]: > 300 µM
IC50 [7]: 100 µM and 106 µM
IC50 [8]: 140 µM and 139 µM
IC50 ([9]; LN229, 48 h): > 300 µM

OC(CNCCc1ccccc1)CN1c2ccccc2Sc2ccccc21 (stereo not drawn) [1-Phenethylamino-3-(10H-phenothiazin-10-yl)-2-propanol]
IC50 (HeLa): 10 µM

CC(=O)c1cc(C(=O)c2ccc3c(c2)Sc2ccccc2N3)c2c(C)cc(C)cn12 [1-[(10H-Phenothiazin-3-yl)carbonyl]-3-acetyl-6,8-dimethylindolizine]
IC50 (MCF-7): > 10 µM

COc1ccn2c(C(C)=O)cc(C(=O)c3ccc4c(c3)Sc3ccccc3N4)c2c1 [1-[(10H-Phenothiazin-3-yl)carbonyl]-3-acetyl-7-methoxyindolizine]
IC50 (MCF-7): > 10 µM

CC(=O)c1cc(C(=O)c2ccc3c(c2)Sc2ccccc2N3)c2cc(C)ccn12 [1-[(10H-Phenothiazin-3-yl)carbonyl]-3-acetyl-7-methylindolizine]
IC50 (MCF-7): > 10 µM

CCN1c2ccc(-c3ccc(OC)cc3)cc2Sc2cc(-c3nnc4ccccn34)ccc21 [3-([1,2,4]Triazolo[4,3-a]pyridin-3-yl)-10-ethyl-7-(4-methoxyphenyl)-10H-phenothiazine]
IC50 (MCF-7): 57.2 µM

CCN1c2ccc(-c3ccccc3)cc2Sc2cc(-c3nnc4ccccn34)ccc21 [3-([1,2,4]Triazolo[4,3-a]pyridin-3-yl)-10-ethyl-7-phenyl-10H-phenothiazine]
IC50 (MCF-7): 10.2 µM

Clc1ccc(-n2cc(CN3c4ccccc4Sc4ccccc43)nn2)cc1 [10-((1-(4-Chlorophenyl)-1H-1,2,3-triazol-4-yl)methyl)-10Hphenothiazine]
IC50 (HepG2): 1.3 µM

COc1ccc(-n2cc(CN3c4ccccc4Sc4ccccc43)nn2)cc1 [10-((1-(4-Methoxyphenyl)-1H-1,2,3-triazol-4-yl)methyl)-10Hphenothiazine]
IC50 (HepG2): 15 µM

COc1cc(Cn2cc(CN3c4ccccc4Sc4ccccc43)nn2)cc(OC)c1OC [10-{[1-(3,4,5-Trimethoxybenzyl)-1H-1,2,3-triazol-4-yl]methyl}-10H-phenothiazine]
IC50 (MCF-7): 0.8 µM

FC(F)(F)c1ccc2c(c1)N(Cc1cn(-c3ccc(Cl)cc3)nn1)c1ccccc1S2 [10-{[1-(4-Chlorophenyl)-1H-1,2,3-triazol-4-yl]methyl}-2-{trifluoromethyl}-10H-phenothiazine]
IC50 (MCF-7): 29.6 µM

c1ccc2c(c1)Nc1ccccc1S2 [PTZ, phenothiazine]
IC50 ([1]; Homo sapiens): > 300 µM
IC50 ([2]; Homo sapiens): 240 µM
IC50 ([3]; Homo sapiens): 175 µM
IC50 (osteosarcoma (HOS) cells; Homo sapiens): > 300 µM
IC50 ([4]; Homo sapiens, MCF7): 188 µM
DPPH radical inhibition [5]: 67%
IC50 ([6]; Homo sapiens): > 300 µM
Selectivity index (SI) [7]: 2.42
IC50 ([7]; Homo sapiens): 73 µM
IC50 ([8]; Mus musculus, CT26): 186 µM
IC50 ([9]; Homo sapiens, LN-229, LN229, 48 h): > 300 µM

CN1CCN(CCCN2c3ccccc3Sc3ccc(C(F)(F)F)cc32)CC1 [Trifluoperazine]
IC50 (MCF-7): 11.3 µM
